# Source: ChEMBL document CHEMBL1201862, “PubChem BioAssay data set” (2004)
# Activity calls are given as the source filed them.
# What was measured:
# [1] = target: T1, Aspartyl aminopeptidase (Plasmodium falciparum 3D7, UniProt Q8I2J3); test: Counterscreen for inhibitors of M1 and M17 aminopeptidases: QFRET-based biochemical high throughput dose response assay for inhibitors of the Plasmodium falciparum M18 Aspartyl Aminopeptidase (PFM18AAP). [Related PubChem assays: 1619 (Screening assay (M17LAP inhibitors).), 1445 (Screening assay (M1AAP inhibitors).)]
# T1 sequence (Q8I2J3 whole entry): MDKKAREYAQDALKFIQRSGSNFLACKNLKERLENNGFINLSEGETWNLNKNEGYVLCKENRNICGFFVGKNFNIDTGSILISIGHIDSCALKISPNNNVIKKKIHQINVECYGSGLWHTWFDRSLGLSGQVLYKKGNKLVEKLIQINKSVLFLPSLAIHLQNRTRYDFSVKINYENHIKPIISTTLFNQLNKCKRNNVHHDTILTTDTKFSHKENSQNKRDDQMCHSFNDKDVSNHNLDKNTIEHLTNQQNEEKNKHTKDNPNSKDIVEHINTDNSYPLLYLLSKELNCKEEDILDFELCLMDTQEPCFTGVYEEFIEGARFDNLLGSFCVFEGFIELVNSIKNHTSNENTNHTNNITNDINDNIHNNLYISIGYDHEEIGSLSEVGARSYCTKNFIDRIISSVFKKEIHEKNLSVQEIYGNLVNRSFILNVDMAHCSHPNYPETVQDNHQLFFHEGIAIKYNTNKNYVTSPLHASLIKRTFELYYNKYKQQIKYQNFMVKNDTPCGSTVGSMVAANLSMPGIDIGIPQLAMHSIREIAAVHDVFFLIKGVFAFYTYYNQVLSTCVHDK
# [2] = target: T2, Leucine aminopeptidase (Plasmodium falciparum 3D7, UniProt Q8IL11); test: P. falciparum M17LAP inhibitors, primary screen, biochemical, fluorogenic H-Leu-NHMec substrate, 1536-well (AID 1619); type: functional
# T2 sequence (Q8IL11 whole entry): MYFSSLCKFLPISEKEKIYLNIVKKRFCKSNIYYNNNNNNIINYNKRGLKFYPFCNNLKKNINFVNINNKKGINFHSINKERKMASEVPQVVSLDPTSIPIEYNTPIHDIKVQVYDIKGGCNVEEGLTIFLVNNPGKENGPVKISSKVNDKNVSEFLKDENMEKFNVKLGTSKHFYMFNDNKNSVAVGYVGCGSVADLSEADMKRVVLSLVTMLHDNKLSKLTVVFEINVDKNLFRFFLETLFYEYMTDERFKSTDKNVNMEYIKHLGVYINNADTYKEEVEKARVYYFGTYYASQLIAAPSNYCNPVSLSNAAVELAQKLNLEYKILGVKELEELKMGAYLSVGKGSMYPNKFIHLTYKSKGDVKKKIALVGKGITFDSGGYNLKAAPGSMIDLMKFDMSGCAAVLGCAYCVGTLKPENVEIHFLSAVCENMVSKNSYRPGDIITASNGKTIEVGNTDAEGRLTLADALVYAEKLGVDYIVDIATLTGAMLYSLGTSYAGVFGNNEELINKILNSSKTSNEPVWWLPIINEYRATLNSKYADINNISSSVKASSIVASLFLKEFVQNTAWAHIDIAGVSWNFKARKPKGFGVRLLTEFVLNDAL
# [3] = target: Procathepsin L (Homo sapiens, UniProt P07711); test: cathepsin L inhibitors, dose response, counter-screen for M1/M17 aminopeptidase inhibitor project, biochemical, QFRET, 1536-well (AID 2214)
# Sequence of Procathepsin L (P07711 whole entry, the tested form may be a part): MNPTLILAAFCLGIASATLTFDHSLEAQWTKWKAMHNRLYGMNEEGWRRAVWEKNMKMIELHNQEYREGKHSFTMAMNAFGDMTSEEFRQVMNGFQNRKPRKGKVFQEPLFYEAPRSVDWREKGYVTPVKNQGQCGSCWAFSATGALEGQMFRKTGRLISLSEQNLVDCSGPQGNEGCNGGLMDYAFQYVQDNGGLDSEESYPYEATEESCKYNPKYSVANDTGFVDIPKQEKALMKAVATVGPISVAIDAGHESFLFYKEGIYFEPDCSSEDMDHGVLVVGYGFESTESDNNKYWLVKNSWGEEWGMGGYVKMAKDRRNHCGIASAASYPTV
# [4] = target: T3, RNA-binding protein pos-1 (Caenorhabditis elegans, UniProt G5EF15); test: inhibitors of POS-1/mex-3 RNA binding, dose response, biochemical, fluorescence polarization (AID 1964);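 note: purified POS-1 fused to maltose binding protein made in E. coli; potency of compounds blocking POS-1 binding to fluorescent RNA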
# T3 sequence (G5EF15 whole entry): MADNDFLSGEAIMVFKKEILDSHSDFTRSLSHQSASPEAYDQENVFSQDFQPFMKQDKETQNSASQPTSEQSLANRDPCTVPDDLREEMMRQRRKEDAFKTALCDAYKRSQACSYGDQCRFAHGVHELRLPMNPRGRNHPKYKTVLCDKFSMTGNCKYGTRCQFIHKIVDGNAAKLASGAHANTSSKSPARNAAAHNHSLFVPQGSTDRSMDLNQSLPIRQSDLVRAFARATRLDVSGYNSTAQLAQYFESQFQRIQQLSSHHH
# [5] = target: T4, Bifunctional protein GlmU (Mycobacterium tuberculosis, UniProt P9WMN3); test: Inhibitors of Mycobacterial Glucosamine-1-phosphate acetyl transferase (GlmU). Secondary screen.; set-up: species or system Mycobacterium tuberculosis H37Rv
# T4 sequence (P9WMN3 whole entry): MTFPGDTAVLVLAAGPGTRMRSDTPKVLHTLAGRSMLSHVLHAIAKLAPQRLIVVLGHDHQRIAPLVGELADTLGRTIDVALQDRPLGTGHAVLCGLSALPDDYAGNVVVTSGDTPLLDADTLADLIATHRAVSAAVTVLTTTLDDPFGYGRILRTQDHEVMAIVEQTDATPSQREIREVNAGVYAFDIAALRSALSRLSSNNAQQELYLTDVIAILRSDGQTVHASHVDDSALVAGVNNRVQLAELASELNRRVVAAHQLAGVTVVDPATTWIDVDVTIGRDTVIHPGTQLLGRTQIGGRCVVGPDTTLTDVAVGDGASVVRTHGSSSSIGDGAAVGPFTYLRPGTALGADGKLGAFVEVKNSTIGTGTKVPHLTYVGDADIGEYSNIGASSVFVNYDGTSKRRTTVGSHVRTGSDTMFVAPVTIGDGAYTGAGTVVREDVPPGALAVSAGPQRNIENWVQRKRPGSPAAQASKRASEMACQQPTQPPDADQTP
# [6] = target: T5, Histone-lysine N-methyltransferase NSD2 (Homo sapiens, UniProt O96028); type: biochemical
# T5 sequence (O96028 whole entry): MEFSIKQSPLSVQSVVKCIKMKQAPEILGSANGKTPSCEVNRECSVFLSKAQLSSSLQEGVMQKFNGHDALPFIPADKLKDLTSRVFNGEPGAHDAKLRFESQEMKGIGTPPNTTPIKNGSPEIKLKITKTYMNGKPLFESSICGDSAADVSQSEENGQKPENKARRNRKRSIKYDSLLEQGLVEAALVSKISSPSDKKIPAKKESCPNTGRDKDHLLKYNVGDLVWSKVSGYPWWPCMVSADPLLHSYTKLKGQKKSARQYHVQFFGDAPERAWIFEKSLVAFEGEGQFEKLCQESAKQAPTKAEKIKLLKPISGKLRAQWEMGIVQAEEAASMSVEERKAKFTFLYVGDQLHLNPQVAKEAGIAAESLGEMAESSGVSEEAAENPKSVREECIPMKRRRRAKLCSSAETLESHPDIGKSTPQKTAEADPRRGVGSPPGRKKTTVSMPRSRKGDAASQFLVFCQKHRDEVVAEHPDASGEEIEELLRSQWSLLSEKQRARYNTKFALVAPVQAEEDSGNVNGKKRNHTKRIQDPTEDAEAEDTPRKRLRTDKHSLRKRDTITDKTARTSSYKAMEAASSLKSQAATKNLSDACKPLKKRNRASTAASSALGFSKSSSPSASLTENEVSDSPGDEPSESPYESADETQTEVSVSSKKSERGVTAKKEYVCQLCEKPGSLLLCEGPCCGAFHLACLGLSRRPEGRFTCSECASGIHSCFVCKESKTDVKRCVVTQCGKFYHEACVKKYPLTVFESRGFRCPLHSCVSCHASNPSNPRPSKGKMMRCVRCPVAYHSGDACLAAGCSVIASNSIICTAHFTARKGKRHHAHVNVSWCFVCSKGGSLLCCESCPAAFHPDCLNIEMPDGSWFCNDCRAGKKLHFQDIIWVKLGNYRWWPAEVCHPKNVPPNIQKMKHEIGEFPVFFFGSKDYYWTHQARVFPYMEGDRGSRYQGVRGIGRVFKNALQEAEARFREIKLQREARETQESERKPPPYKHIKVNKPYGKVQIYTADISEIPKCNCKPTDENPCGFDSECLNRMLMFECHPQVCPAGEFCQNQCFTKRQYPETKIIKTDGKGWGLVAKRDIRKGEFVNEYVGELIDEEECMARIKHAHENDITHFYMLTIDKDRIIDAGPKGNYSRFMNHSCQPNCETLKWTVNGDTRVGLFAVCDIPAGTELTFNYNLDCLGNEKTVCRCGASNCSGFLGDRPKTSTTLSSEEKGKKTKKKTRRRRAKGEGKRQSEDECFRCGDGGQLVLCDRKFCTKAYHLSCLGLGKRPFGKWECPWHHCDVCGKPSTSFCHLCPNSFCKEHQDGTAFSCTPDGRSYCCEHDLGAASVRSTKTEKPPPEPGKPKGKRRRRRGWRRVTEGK
# [7] = target: T6, Zinc finger protein mex-5 (Caenorhabditis elegans, UniProt Q9XUB2); test: MEX-5/TCR-2 RNA interaction inhibitors, dose response, biochemical, C. elegans, fluorescence polarization (AID 1960)
# T6 sequence (Q9XUB2 whole entry): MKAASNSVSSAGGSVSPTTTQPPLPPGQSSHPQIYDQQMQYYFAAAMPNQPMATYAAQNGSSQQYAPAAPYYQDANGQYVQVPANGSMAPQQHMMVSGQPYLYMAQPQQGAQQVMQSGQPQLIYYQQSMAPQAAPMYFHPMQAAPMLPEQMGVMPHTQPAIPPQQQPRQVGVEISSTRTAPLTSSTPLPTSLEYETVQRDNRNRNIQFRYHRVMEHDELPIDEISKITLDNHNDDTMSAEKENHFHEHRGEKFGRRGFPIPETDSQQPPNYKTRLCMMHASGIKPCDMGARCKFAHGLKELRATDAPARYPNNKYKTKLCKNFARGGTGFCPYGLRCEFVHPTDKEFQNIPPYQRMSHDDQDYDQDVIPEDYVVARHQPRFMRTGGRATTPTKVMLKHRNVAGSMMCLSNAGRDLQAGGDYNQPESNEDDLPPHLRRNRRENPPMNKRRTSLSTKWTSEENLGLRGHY
# [8] = target: T7, Carboxy-terminal domain RNA polymerase II polypeptide A small phosphatase 1 (Homo sapiens, UniProt Q9GZU7); test: inhibitors of CTDSP1, concentration-response testing, biochemical assay, absorbance-based, actives from ultra-high-throughput screening (AID 540297); type: functional
# T7 sequence (Q9GZU7 whole entry): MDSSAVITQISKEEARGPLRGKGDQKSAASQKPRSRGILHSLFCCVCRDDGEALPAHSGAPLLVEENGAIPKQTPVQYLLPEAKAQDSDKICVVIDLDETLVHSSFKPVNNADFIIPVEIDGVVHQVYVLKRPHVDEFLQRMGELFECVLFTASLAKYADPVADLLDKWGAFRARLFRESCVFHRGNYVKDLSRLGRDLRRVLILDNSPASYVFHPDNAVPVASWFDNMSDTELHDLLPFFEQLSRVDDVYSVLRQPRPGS
# [9] = target: Prothrombin (Homo sapiens, UniProt P00734); test: Thrombin 1536 HTS Dose Response Confirmation. [Related pubchem assays: 1046 (Thrombin 1536 HTS; hits were confirmed in this assay)]; type: functional
# [10] = inhibitors of firefly luciferase expression or activity, dose response, H4 neuroglioma cells, luminescence (AID 1990); type: functional, cell-based
# [11] = Luminescence Cell-Based Dose Response HTS to Identify Inhibitors of 5'UTR Stem-Loop Driven Prion Protein mRNA Translation in H4 Neuroglioblastoma Cells. [Related pubchem assays: 1827 (Project Summary), 1813 (Primary HTS)]; type: functional
# [12] = inhibitors of SNCA 5'UTR-driven reporter translation, confirmation, H4 neuroglioma cells, luminescence (AID 1988); type: functional, cell-based
# [13] = Shn3 3'UTR reporter inhibitors, dose response, cell-based, Clone20 osteoblasts, firefly luciferase, cherry-picked (AID 624132); type: functional;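 note: firefly luciferase luminescence from reporter carrying the Shn3 3'UTR in osteoblasts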
# [14] = control 3'UTR Renilla luciferase suppression, dose response, counter-screen for Shn3 inhibitor project, cell-based, Clone20-Shn3RL, cherry-picked (AID 624133); type: functional
# [15] = system: Vero; test: host cell cytotoxicity of antiviral hits, dose response, cytotoxicity control for West Nile virus antiviral project, secondary assay (AID 1650); type: functional; conditions: Chlorocebus sabaeus
# [16] = target: Paired box protein Pax-8 (Homo sapiens, UniProt Q06710); test: inhibitors of PAX8-driven TPO luciferase reporter, dose response, RMG-I cells, cherry-pick (AID 687027); type: functional, cell-based;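 note: luciferase reporter driven by Pax8 target thyroperoxidase promoter measured by SteadyGlo luminescence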
# Sequence of Paired box protein Pax-8 (Q06710 whole entry): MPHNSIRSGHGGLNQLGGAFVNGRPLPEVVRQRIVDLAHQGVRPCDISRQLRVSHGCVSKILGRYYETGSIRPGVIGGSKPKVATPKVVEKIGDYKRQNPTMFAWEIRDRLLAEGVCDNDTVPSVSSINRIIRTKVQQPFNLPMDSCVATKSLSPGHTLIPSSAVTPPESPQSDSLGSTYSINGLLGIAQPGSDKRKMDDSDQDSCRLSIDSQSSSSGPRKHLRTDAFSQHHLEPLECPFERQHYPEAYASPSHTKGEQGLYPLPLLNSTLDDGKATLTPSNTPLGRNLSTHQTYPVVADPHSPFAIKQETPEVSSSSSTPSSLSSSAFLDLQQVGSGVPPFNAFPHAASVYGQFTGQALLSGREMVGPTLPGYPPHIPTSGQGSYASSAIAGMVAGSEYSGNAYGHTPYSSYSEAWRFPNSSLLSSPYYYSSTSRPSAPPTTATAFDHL
smiles,measurement,setting,value
CCc1cc2ccccc2nc1SCC(=O)Nc1cc(OC)c(OC)cc1C(=O)O,IC50,[1],> 73.5 µM (not active)
same,IC50,[2],< 1 µM (active)
same,IC50,[3],> 59.6 µM (not active)
CC(=O)NC1=NC(=O)/C(=C/c2cc(C)n(-c3cccc(C(=O)O)c3)c2C)S1,EC50,[4],> 300 µM (not active)
same,IC50,[5],93.8 µM (active)
same,AC50,[6],9.13 µM (active)
same,EC50,[7],> 300 µM (inconclusive)
same,IC50,[8],4.31 µM (active)
Cc1ccc(S(=O)(=O)/N=C/c2ccco2)cc1,IC50,[9],> 50 µM (not active)
C=CCc1cccc(/C=N/NC(=O)CNc2ccccc2)c1O,EC50,[10],> 120 µM (not active)
same,IC50,[9],> 50 µM (not active)
same,EC50,[11],10.7 µM (active)
same,EC50,[12],> 120 µM (not active)
C=C1C(=O)[C@@]23[C@H](O)C[C@@H]4C(C)(C)CC[C@H](O)[C@]4(C)[C@@H]2C[C@H](O)[C@@H]1[C@H]3O,AC50,[13],2.95 µM (active)
same,AC50,[14],18.3 µM (active)
same,CC50,[15],14.9 µM (active)
same,AC50,[16],3.37 µM (active)
